Test results from ChEMBL document CHEMBL5532660, “Lead Optimization of BIBR1591 To Improve Its Telomerase Inhibitory Activity: Design and Synthesis of Novel Four Chemical Series with In Silico, In Vitro, and In Vivo Preclinical Assessments” (J Med Chem, 2024).
Each block holds one compound with its values, some of them ahead of it.

How the values were obtained:
[1] = molecular target: Telomerase reverse transcriptase (Homo sapiens) (UniProt O14746); assay: Inhibition of telomerase (unknown origin) by RT-qPCR analysis relative to control; parameters: concentration or dose not given beside the values; details: concentration not given here
[2] = test system: Ehrlich; assay: Antitumor activity against mouse EAC cells implanted in Swiss albino mouse assessed as increase in serum SOD level at 5 mg/kg, ip administered for 2 weeks by ELISA relative to control; assay type: functional
[3] = test system: Ehrlich; assay: Antitumor activity against mouse EAC cells implanted in Swiss albino mouse assessed as hemoglobin level at 5 mg/kg, ip administered for 2 weeks (reference value: 9.25 +/- 0.26 g/dL); assay type: functional
[4] = test system: Ehrlich; assay: Antitumor activity against mouse EAC cells implanted in Swiss albino mouse assessed as erythrocyte count at 5 mg/kg, ip administered for 2 weeks (reference value: 4.1 +/- 0.23 x 10^6/mm3); assay type: functional
[5] = test system: Ehrlich; assay: Antitumor activity against mouse EAC cells implanted in Swiss albino mouse assessed as necrosis at 5 mg/kg, ip administered for 2 weeks by H and E staining based light microscopic analysis (reference value: 0 to 25%); assay type: functional
[6] = test system: Ehrlich; assay: Antitumor activity against mouse EAC cells implanted in Swiss albino mouse assessed as platelet count at 5 mg/kg, ip administered for 2 weeks (reference value: 963.66 +/- 29.63 x10^3/mm3); assay type: functional
[7] = test system: Ehrlich; assay: Antitumor activity against mouse EAC cells implanted in Swiss albino mouse assessed as total leukocyte count at 5 mg/kg, ip administered for 2 weeks (reference value: 7.11 +/- 0.27 x10^3/mm3); assay type: functional
[8] = test system: Ehrlich; assay: Antitumor activity against mouse EAC cells implanted in Swiss albino mouse assessed as reduction in total platelet count at 5 mg/kg, ip administered for 2 weeks relative to control; assay type: functional; parameters: scale not given: the % may be the effect or the level left
[9] = test system: Ehrlich; assay: Antitumor activity against mouse EAC cells implanted in Swiss albino mouse assessed as reduction in total leukocytes count at 5 mg/kg, ip administered for 2 weeks relative to control; assay type: functional; parameters: scale not given: the % may be the effect or the level left
[10] = test system: Ehrlich; assay: Antitumor activity against mouse EAC cells implanted in Swiss albino mouse assessed as reduction in tumor weight at 5 mg/kg, ip administered for 2 weeks and measured on day 5, 10 and 14 relative to control; assay type: functional; parameters: scale not given: the % may be the effect or the level left
[11] = test system: Ehrlich; assay: Antitumor activity against mouse EAC cells implanted in Swiss albino mouse assessed as appearance of granulation tissue at 5 mg/kg, ip administered for 2 weeks by H and E staining based light microscopic analysis (reference value: 0 to 25%); assay type: functional
[12] = test system: Ehrlich; assay: Antitumor activity against mouse EAC cells implanted in Swiss albino mouse assessed as inflammatory cell infiltration at 5 mg/kg, ip administered for 2 weeks by H and E staining based light microscopic analysis (reference value: 0 to 25%); assay type: functional
[13] = test system: Ehrlich; assay: Antitumor activity against mouse EAC cells implanted in Swiss albino mouse assessed as increase in erythrocyte count at 5 mg/kg, ip administered for 2 weeks relative to control; assay type: functional
[14] = test system: Ehrlich; assay: Antitumor activity against mouse EAC cells implanted in Swiss albino mouse assessed as reduction in TNF-alpha level at 5 mg/kg, ip administered for 2 weeks by ELISA relative to control; assay type: functional; parameters: scale not given: the % may be the effect or the level left
[15] = test system: Ehrlich; assay: Antitumor activity against mouse EAC cells implanted in Swiss albino mouse assessed as apoptotic cells at 5 mg/kg, ip administered for 2 weeks by H and E staining based light microscopic analysis (reference value: 25 to 50%); assay type: functional
[16] = test system: Ehrlich; assay: Antitumor activity against mouse EAC cells implanted in Swiss albino mouse assessed as mean corpuscular volume at 5 mg/kg, ip administered for 2 weeks (reference value: 46.78 +/- 0.43 fL); assay type: functional
[17] = test system: Ehrlich; assay: Antitumor activity against mouse EAC cells implanted in Swiss albino mouse assessed as mean corpuscular hemoglobin at 5 mg/kg, ip administered for 2 weeks (reference value: […] +/- 0.48 pg); assay type: functional
[18] = test system: Ehrlich; assay: Antitumor activity against mouse EAC cells implanted in Swiss albino mouse assessed as increase in hemoglobin level at 5 mg/kg, ip administered for 2 weeks relative to control; assay type: functional
[19] = test system: Ehrlich; assay: Antitumor activity against mouse EAC cells implanted in Swiss albino mouse assessed as increase in caspase-3 level in serum at 5 mg/kg, ip administered for 2 weeks by ELISA relative to control; assay type: functional
[20] = test system: Ehrlich; assay: Antitumor activity against mouse EAC cells implanted in Swiss albino mouse assessed as reduction in tumor volume at 5 mg/kg, ip administered for 2 weeks and measured on day 5, 10 and 14 relative to control; assay type: functional; parameters: scale not given: the % may be the effect or the level left
[21] = test system: Ehrlich; assay: Antitumor activity against mouse EAC cells implanted in Swiss albino mouse assessed as intact anaplastic tumor cells at 5 mg/kg, ip administered for 2 weeks by H and E staining based light microscopic analysis (reference value: 75 to 100%); assay type: functional
[22] = test system: HepG2; assay: Cytotoxicity against human HepG2 cells overexpressing telomerase assessed as inhibition of cell growth incubated for 48 hrs by SRB assay; assay type: functional, cell-based; details: HepG2, 48 h
[23] = test system: NCI-H1299; assay: Cytotoxicity against human NCI-H1299 cells overexpressing telomerase assessed as inhibition of cell growth incubated for 48 hrs by SRB assay; assay type: functional, cell-based; details: NCI-H1299, 48 h
[24] = test system: Huh-7; assay: Induction of apoptosis in human Huh-7 cells assessed as upregulation of p53 protein expression by measuring fold change by ELISA relative to control; assay type: functional
[25] = test system: Huh-7; assay: Cytotoxicity against human Huh-7 cells overexpressing telomerase assessed as inhibition of cell growth incubated for 48 hrs by SRB assay; assay type: functional, cell-based; details: Huh-7, 48 h
[26] = test system: A549; assay: Cytotoxicity against human A549 cells overexpressing telomerase assessed as inhibition of cell growth incubated for 48 hrs by SRB assay; assay type: functional, cell-based; details: A549, 48 h
[27] = Cytotoxicity against HSF cells assessed as reduction in cell viability upto 50 ug/ml incubated for 48 hrs by SRB assay; assay type: toxicity, cell-based; details: human, dose < 50 µg/ml
[28] = test system: NCI-H460; assay: Cytotoxicity against human NCI-H460 cells overexpressing telomerase assessed as inhibition of cell growth incubated for 48 hrs by SRB assay; assay type: functional, cell-based; details: NCI-H460, 48 h
[29] = test system: Huh-7; assay: Induction of apoptosis in human Huh-7 cells assessed as upregulation of BAX protein expression by measuring fold change by ELISA relative to control; assay type: functional
[30] = test system: Huh-7; assay: Induction of apoptosis in human Huh-7 cells assessed as downregulation of BCL-2 protein expression by measuring fold change by ELISA relative to control; assay type: functional

Chain of Telomerase reverse transcriptase (Homo sapiens) (O14746 whole entry): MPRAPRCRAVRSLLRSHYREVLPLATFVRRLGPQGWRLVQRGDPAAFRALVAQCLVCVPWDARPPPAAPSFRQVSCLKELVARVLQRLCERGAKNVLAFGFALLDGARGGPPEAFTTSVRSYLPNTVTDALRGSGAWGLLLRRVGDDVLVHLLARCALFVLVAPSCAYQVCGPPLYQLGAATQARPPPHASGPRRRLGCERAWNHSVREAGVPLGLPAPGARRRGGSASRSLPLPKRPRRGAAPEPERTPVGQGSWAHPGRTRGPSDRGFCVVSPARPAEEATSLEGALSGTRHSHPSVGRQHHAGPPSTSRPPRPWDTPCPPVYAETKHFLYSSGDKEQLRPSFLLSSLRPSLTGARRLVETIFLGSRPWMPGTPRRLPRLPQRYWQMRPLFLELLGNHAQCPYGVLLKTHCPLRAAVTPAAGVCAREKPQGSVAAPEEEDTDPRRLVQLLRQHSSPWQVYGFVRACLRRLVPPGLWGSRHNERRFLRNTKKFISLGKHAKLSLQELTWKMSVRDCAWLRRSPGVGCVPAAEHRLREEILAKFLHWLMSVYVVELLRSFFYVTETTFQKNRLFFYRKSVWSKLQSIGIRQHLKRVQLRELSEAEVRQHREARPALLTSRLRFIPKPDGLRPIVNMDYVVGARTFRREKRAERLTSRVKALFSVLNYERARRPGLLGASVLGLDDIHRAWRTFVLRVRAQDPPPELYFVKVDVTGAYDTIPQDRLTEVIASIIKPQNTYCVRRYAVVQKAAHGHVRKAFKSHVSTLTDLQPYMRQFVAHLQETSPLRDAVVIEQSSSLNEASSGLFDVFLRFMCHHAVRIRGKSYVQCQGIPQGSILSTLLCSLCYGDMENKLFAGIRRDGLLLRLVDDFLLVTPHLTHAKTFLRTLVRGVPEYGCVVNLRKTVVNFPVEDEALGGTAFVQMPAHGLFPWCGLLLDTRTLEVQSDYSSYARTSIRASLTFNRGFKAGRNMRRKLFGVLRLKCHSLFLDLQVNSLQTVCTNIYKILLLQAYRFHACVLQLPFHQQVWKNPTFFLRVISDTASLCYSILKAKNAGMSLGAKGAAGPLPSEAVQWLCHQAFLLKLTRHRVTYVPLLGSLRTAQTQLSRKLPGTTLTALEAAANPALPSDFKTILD

SMILES: C/C(=C\C(=O)Nc1ccccc1C(=O)O)c1ccc2ccccc2c1
inhibition [1]: 69.6%

SMILES: COc1cccc2c1C(=O)c1c(O)c3c(c(O)c1C2=O)C[C@@](O)(C(=O)CO)C[C@@H]3O[C@H]1C[C@H](N)[C@H](O)[C@H](C)O1 [DOXORUBICIN]
Activity [2]: 129.54%
Activity [3]: 11.28 g/dL
Activity [4]: 5.93 10^6/mm3
Activity [5]: 50%
Activity [6]: 530.5 10^3/mm3
Activity [7]: 4.46 10^3/mm3
Activity [8]: 44.94%
Activity [9]: 37.27%
Activity [10]: 62.52%
Activity [11]: 0%
Activity [12]: 0%
Activity [13]: 44.63%
Activity [14]: 64.14%
Activity [15]: 50%
Activity [16]: 51.14 fL
Activity [17]: 16.43 pg
Activity [18]: 21.94%
Activity [19]: 64.95%
Activity [20]: 57.05%
Activity [21]: 25%

SMILES: C/C(=C\C(=O)Nc1ccc(N2CCOCC2)cc1C(=O)O)c1ccc2ccccc2c1
inhibition [1]: 51.6%

SMILES: N#Cc1c(O)nc(SCC(=O)Nc2cccc3ccccc23)nc1-c1cccnc1
inhibition [1]: 34.5%

SMILES: N#Cc1c(O)nc(SCC(=O)Nc2ccc3ccccc3c2)nc1-c1cccnc1
inhibition [1]: 26%

SMILES: N#Cc1c(O)nc(SCC(=O)Nc2cccc([N+](=O)[O-])c2)nc1-c1cccnc1
inhibition [1]: 28.1%

SMILES: COc1ccc(NC(=O)CSc2nc(O)c(C#N)c(-c3cccnc3)n2)cc1
inhibition [1]: 46.1%

SMILES: N#Cc1c(O)nc(SCC(=O)Nc2ccc(Cl)c(C(F)(F)F)c2)nc1-c1cccnc1
inhibition [1]: 8.91%

Further lines, with some results ahead:

inhibition [1]: 32.1%
SMILES: N#Cc1c(O)nc(SCC(=O)Nc2nc3ccccc3s2)nc1-c1cccnc1

inhibition [1]: 58.6%
SMILES: N#Cc1c(O)nc(SCC(=O)Nc2sc3c(c2C#N)CCC3)nc1-c1cccnc1
IC50 [22]: 41 µM
IC50 [23]: 29 µM
fold change (FC) [24]: 1.07
IC50 [25]: 25 µM
IC50 [26]: 90 µM
Activity [27]: Non-Toxic
IC50 [28]: 45 µM
fold change (FC) [29]: 1.08
fold change (FC) [30]: 0.8

inhibition [1]: 5.58%
SMILES: N#Cc1c(O)nc(SCC(=O)Nc2cc(Cl)ccc2Cl)nc1-c1cccnc1

inhibition [1]: 30.2%
SMILES: CC(=O)c1ccc(NC(=O)CSc2nc(O)c(C#N)c(-c3cccnc3)n2)cc1

inhibition [1]: 21.7%
SMILES: N#Cc1ccc(NC(=O)CSc2nc(O)c(C#N)c(-c3cccnc3)n2)cc1

inhibition [1]: 55.6%
SMILES: N#Cc1c(O)nc(SCC(=O)Nc2sc3c(c2C#N)CCCC3)nc1-c1cccnc1
IC50 [22]: 18 µM
IC50 [23]: 23 µM
fold change (FC) [24]: 1.13
IC50 [25]: 33 µM
IC50 [26]: 86 µM
Activity [27]: Non-Toxic
IC50 [28]: 41 µM
fold change (FC) [29]: 1.14
fold change (FC) [30]: 0.77

inhibition [1]: 32.6%
SMILES: N#Cc1c(O)nc(SCC(=O)Nc2nc3ccccc3[nH]2)nc1-c1cccnc1
